Data taken from patent US8748575B2, “Therapeutic peptides” (Combimab, Inc., priority 2010, dated 2014).
Read-outs that look alike come from different tables or passages of the source. Residues, ends and D or L forms follow the SMILES beside them.

Assays:
[1] = human intestinal fluid; cited from earlier work
[2] = Mouse intestinal secretion assay (suckling mouse assay); format: in vivo; design: key to Mouse intestinal secretion assay (suckling mouse): 1+ (lowest activity/potency); ++: Results are graded from 1+ (lowest activity/potency) to 5+ (highest activity/potency); +++: Results are graded from 1+ (lowest activity/potency) to 5+ (highest activity/potency); ++++: Results are graded from 1+ (lowest activity/potency) to 5+ (highest activity/potency); +++++: 5+ (highest activity/potency); conditions: for Mouse intestinal secretion assay (suckling mouse): graded activity/potency
Description: A relevant disease model is the suckling mouse model in which STa (5-18) is deposited into the stomach of 3-4 day old mice, and the accumulation of fluid in their intestines is determined gravimetrically (Parkinson et al., 1994). All GCC peptides were formulated to the desired concentration in Dulbecco's PBS (1×, No Ca++, no Mg++) containing […] immediately prior to dosing. Proteinase inhibitors were prepared as stock solutions in PBS and added to dosing solutions by serial dilution, as needed. The dosing solution (50 μL) was delivered into the stomachs of 2-4 day old mice (3 per dosing group) using a plastic tube attached to the needle of a 1 mL tuberculin syringe. After 3 hours, the animals were sacrificed and dissected to determine the individual weights of the intestines and the rest of the carcass, respectively.

[3] = 12 weeks treatment period; cited from earlier work
[4] = cited from earlier work
[5] = cited from earlier work; remark: listed apart in the source
[6] = Stability in rat intestinal fluid (Kessler 2008, 2009); format: in vitro ADME; conditions: ileal vs duodenal fluid
Description: According to the present invention, there are additional reasons why the distal jejunum, ileum, cecum and proximal colon are the preferred targets for a GCCR agonist. […] ST peptides are stable in the stomach but are rapidly degraded in the upper intestine. […] However, linaclotide is degraded rapidly in the duodenum. In intestinal fluids from both mouse, rat and humans the peptide loses its C-terminal tyrosine and forms an active metabolite. The half life for linaclotide is 3 minutes in rat intestinal fluid and 1 minute in human intestinal fluid. This metabolite is also rapidly degraded, first by reductases and then by proteases. The half life for the metabolite is about 5 minutes in rat intestinal fluid, and 3 minutes in human intestinal fluid. It is not detectable after 60 minutes in rat intestinal fluid, and after 18 minutes in human intestinal fluid (Kessler et al., 2009; Kessler et al., 2008). Thus, if released in the stomach or duodenum, an ST peptide analogue such as linaclotide will be active only in the duodenum. It is likely that an uroguanylin analogue such as plecanatide is degraded even more rapidly and therefore has an even shorter activity time.
This correlates with the free thiol concentrations in these locations and the activity of the Glutathione Reductase/Glutareduxin system activities in these locations.

GCC [7] = biological target: T1, GCC (Rattus norvegicus, UniProt P23897); design: ligated intestinal loops from Sprague Dawley and Wistar rats; host or cells: rat jejunal and ileal loops in vivo; conditions: ileum relative to jejunum; cited from earlier work
T1 sequence (P23897 23-1072): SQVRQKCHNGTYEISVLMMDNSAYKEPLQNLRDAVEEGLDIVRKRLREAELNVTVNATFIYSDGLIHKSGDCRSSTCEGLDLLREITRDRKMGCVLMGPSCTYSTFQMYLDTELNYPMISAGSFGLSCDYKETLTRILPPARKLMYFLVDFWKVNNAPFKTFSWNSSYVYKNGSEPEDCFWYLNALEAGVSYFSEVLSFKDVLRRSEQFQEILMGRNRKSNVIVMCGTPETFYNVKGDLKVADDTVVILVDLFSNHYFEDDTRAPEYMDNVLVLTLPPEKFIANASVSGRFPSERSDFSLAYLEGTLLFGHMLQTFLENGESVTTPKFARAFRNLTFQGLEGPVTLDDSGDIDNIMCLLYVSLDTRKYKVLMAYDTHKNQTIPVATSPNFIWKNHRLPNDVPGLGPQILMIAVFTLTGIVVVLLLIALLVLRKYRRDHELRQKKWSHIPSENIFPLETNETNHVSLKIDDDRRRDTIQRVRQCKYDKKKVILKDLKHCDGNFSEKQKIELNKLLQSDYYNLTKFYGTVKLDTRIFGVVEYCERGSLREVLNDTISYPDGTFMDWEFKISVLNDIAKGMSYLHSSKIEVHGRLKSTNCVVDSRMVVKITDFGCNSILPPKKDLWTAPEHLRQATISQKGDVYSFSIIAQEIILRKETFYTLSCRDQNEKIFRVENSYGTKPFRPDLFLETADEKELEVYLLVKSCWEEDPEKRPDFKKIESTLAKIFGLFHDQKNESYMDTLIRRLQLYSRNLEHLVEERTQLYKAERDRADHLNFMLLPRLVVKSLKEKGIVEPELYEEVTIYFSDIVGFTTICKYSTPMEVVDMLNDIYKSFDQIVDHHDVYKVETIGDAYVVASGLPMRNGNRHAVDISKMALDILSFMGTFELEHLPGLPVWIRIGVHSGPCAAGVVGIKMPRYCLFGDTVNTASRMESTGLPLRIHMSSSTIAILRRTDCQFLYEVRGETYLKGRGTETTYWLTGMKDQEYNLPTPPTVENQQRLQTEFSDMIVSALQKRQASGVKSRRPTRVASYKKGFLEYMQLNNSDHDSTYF

GCC [8] = conditions: GCC expressed in the jejunum and cecum of the calf; cited from earlier work
GCC [9] = biological target: T2, GCC (Homo sapiens, UniProt P25092); conditions: read-out: affinity for the interaction with GCC, cited from earlier work
T2 construct: human small intestine (n=20) and colon (n=24) specimens; host or cells: human small intestine and colon specimens
T2 sequence (P25092 24-1073): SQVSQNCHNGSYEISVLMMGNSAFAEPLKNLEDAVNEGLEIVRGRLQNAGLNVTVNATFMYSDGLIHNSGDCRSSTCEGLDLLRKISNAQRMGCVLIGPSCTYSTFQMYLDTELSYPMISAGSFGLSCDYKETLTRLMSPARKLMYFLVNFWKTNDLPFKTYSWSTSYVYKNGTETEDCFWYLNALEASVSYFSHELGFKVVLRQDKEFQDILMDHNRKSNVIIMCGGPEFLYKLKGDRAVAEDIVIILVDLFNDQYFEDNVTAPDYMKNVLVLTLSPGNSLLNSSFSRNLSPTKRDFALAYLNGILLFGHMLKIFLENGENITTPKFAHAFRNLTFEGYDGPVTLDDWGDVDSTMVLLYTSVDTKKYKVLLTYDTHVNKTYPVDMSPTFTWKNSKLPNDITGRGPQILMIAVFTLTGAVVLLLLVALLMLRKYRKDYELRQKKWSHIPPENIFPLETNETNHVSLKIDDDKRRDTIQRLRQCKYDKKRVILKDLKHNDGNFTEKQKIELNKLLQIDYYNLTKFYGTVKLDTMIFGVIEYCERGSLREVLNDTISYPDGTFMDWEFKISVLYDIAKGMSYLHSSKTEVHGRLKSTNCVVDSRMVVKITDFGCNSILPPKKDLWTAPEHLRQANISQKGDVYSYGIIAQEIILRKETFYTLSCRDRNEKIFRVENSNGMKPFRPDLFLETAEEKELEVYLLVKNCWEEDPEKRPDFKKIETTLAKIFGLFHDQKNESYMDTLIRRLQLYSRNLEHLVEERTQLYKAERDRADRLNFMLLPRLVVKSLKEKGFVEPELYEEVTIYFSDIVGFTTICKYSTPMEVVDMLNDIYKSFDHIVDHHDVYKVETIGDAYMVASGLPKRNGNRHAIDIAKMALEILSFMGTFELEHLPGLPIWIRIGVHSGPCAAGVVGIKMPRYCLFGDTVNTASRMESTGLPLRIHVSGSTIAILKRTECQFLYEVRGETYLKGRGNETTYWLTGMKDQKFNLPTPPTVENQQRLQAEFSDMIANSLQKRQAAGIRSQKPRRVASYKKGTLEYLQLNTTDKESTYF

GCC [10] = biological target: T1, GCC; design: GCC expressed in the duodenum, cecum and colon; host or cells: intestinal tissue (duodenum, cecum, colon); conditions: GCC expressed in the duodenum, cecum and colon; read-out: affinity (Ki) for GCC; cited from earlier work

Compound	half life [1]	activity in the mouse intestinal secretion assay ([2]; FIG. 26, compared to STa)	Mouse intestinal secretion assay (suckling mouse) [2]	patients achieving primary efficacy endpoint (three or more CSBMs per week and increase of at least one CSBM per week over baseline for at least nine of 12 weeks) [3]	half life ([4]; rat duodenal fluid)	half life ([4]; rat ileal fluid)	half life ([4]; rat intestinal fluid)	half life ([4]; rat jejunal fluid)	stable in simulated gastric fluid for [5]	more stable in ileal intestinal fluid compared to the duodenum [6]	duration of response in intestinal loops (GCC [7])	decrease in the affinity for its receptor (GCC [8])	Ki (GCC [9]; human colon specimens (n=24))	Ki (GCC [9]; human small intestine specimens (n=20))	Ki (GCC [10])
C[C@@H]1NC(=O)[C@@H]2CCCN2C(=O)[C@H](CC(N)=O)NC(=O)[C@@H]2CSSC[C@H](N)C(=O)N[C@H]3CSSC[C@H](NC1=O)C(=O)N[C@@H]([C@@H](C)O)C(=O)NCC(=O)N[C@H](C(=O)N[C@@H](Cc1ccc(O)cc1)C(=O)O)CSSC[C@H](NC(=O)[C@H](Cc1ccc(O)cc1)NC(=O)[C@H](CCC(=O)O)NC3=O)C(=O)N2 [Linaclotide, H2N Cys Cys Glu Tyr Cys Cys Asn Pro Ala Cys Thr Gly Cys Tyr COOH] (HELM PEPTIDE1{C.C.E.Y.C.C.N.P.A.C.T.G.C.Y}$PEPTIDE1,PEPTIDE1,1:R3-6:R3|PEPTIDE1,PEPTIDE1,2:R3-10:R3|PEPTIDE1,PEPTIDE1,5:R3-13:R3$$$V2.0)	1 min	lower activity	+++	21%	about 0.44 minutes	about 30 minutes	3 min	0.36 min	up to 3 hours	up to 100 ×					
H2N Asn Thr Phe Tyr Cys Cys Glu Leu Cys Cys Asn Pro Ala Cys Ala Gly Cys Tyr COOH [STa(1-18)]			++++								significantly longer duration of response in the Ileum relative to the jejunum	2 log	1.2 nM	1.9 nM	1 to 4 nM
